# Test system: collagen I A2
# Test: ELISA for collagen1A2 in ECM isolated from cultured hypodermis explants after 10 days of treatment
# Assay type: cell-based, human
# Conditions: additions (extract solvents/additives) alone
# Procedure: The hypodermis was prepared and weighed out into approximately 200 mg pieces. The tissue was cultured in a submersed state in defined and serum-free hypodermis tissue culture medium (CB-EM-HYP) in an actively humidified biomedical incubator (Memmert, Germany) at 37° C. and 5% CO2.
# Overnight cultivation was followed by substitution with fresh tissue culture medium. Explants were cultivated either in the presence or absence of test samples.
# Over a period of 10 days, the medium was replaced daily with freshly supplemented test samples or with normal media without test samples.
# After 10 days of treatment, a portion of the tissue samples was processed for the extraction of ECM proteins.
# Isolated ECM was subjected to a protein estimation in accordance with the BCA method (Bicinchoninic Acid) (Sigma Aldrich), and ELISAs (Biotechne) corresponding to the antigen collagen1A2 were performed according to the manufacturer's protocol using the same amounts of proteins as were estimated from the BCA assay. A sensitive filter-based microplate reader (Accuris, USA) was used to perform readout.
# The following test samples were investigated: • A. Glycolic caviar extract containing approx. 6% fish egg material, 10% water and propylene glycol ad 100. […] Lipophilic caviar extract containing 40% fish egg material, 0.02% tocopherol, 1% by weight phenoxyethanol and triglycerides ad 100. This extract was obtained from an extraction with triglycerides and phenoxyethanol of a homogenizate from fish eggs of Acipenser baerii. […] The proportion of sodium mannose 6-phosphate is 2.5% by weight. The proportion of mannose is 2.5% by weight.
row,Compound,Increase in the expression of collagen I by the additions alone
1,O=C(O)[C@@H](O)[C@H](O)[C@H](O)[C@@H](O)C(=O)O [galactaric acid],do not show any increase
2,OCC(O)CO [glycerol],do not show any increase
3,CC(O)CO (stereo not shown) [propylene glycol],do not show any increase
4,O [water],do not show any increase

# From US20230355506A1, “ACTIVE INGREDIENT COMPLEX FOR COSMETIC PREPARATIONS” (LA PRAIRIE GROUP AG, priority 2022, published 2023)
